What was measured:
[1] = system: A549 lung adenocarcinoma cells; test: A549 cell proliferation / growth inhibition; assay type: cell-based, human; conditions: for Selected from primary screen for growth inhibition of A549 cells at 50 μM: 50 μM compound, 1 mM glucose; for Selected for having an IC50 ratio (10 mM glucose: 1 mM glucose) of A549 growth higher than WBC-A: IC50 on 10 mM vs 1 mM glucose, compared with WBC-A
Experimental: The analog library (n=203) was screened for inhibition of growth of A549 cells on RPMI medium supplemented with 1 mM glucose. DMSO (green bar) and WBC-A (orange bar) served as negative and positive control, respectively. In addition, the reference glucose transport inhibitors STF-31, Fasentin, BAY-876, WZB-117 and Cytochalasin B were included and indicated in red. Compounds were added at 50 μM concentration. Number of cells was determined by counting nuclei stained by Hoechst after three days of growth.
For both adherent A549 and MCF10Δ H-RAS^V12 cell lines, growth curves were established using the IncuCyte® ZOOM technology. By collecting phase contrast images, the IncuCyte® software provides a calculated confluency percentage from which growth curves can be deducted.
Cells were seeded at a density of 1000-1500 cells/well in a Nunc-Edge™ 96-well plate (Thermo Fisher Scientific) and growth was typically measured over 3 to 5 days. For the measurement of apoptosis induction using the MCF10Δ H-RAS^V12 cell line, the IncuCyte® Caspase-3/7 green dye was added to the medium in the recommended concentration at the beginning of the growth curve experiment. Apoptosis was detected by taking fluorescent images by excitation at 488 nm followed by IncuCyte® software analysis. Cell growth of the KMS-12-PE multiple myeloma cell line, which grows in suspension, was measured by manual cell counting. Cells were initially seeded at a density of 10^4 cells/well and incubated for 4 days after which the cell number was counted. For all cell lines, the same medium used for pregrowth was also used for the growth curve experiment, albeit with different glucose concentrations depending on the experimental design. With compound administration, the final concentration of DMSO never exceeded 0.1%. Typically, at least four technical repeats were included per condition.

tps1Δ cells = test: Growth rescue of tps1Δ strain on glucose (growth curves, 2% galactose medium); assay type: cell-based, S. cerevisiae; conditions: 100 μM compound, 2.5 mM glucose
Experimental: Growth curves were made by measuring OD595 in a 96-well plate using the Multiskan™ FC Microplate Photometer (Thermo Fisher Scientific). Typically, for tps1Δ rescue experiments (FIG. 2b-e; FIG. 4a), cells were (pre)grown in Complete Synthetic medium containing 2% galactose.
Compounds were always added 10 min prior to glucose addition to ensure maximal interaction between the cells and compounds. Cells originating from the preculture were harvested, washed in medium without sugar, after which they were resuspended to an OD of 0.1 in 200 μL of the appropriate medium. At least three technical replicates were included per condition. OD595 was measured at 30° C. every 30 min with a 10-min shaking interval.

| SMILES | Selected from primary screen for growth inhibition of A549 cells at 50 μM [1] | Selected for having an IC50 ratio (10 mM glucose: 1 mM glucose) of A549 growth higher than WBC-A [1] | Rescue of the tps1Δ strain on 2.5 mM glucose at 100 μM (tps1Δ cells) |
| --- | --- | --- | --- |
| Cc1nc(SCCN2CCOCC2)c2c(-c3cccs3)csc2n1 [44A] | Yes | Lower IC50 ratio | Yes |
| Cc1nc(Sc2nnc(-c3ccco3)n2C)c2c(-c3cccs3)csc2n1 [25A] | No |  | No |
| Cc1nc(Sc2nnc(C3CC3)n2C2CC2)c2c(-c3cccs3)csc2n1 [58C] | No |  | No |
| c1nc(SCCN2CCOCC2)c2c3c(sc2n1)CCCC3 [84C] | No |  | No |
| Cc1sc2[nH]c(CSc3nnc(-c4cccs4)n3Cc3ccccc3)nc(=N)c2c1C [11A] | No |  | No |
| CCOC(=O)CNC(=O)CSc1nnc(C)c2cnn(-c3ccccc3)c12 [73C] | No |  | No |
| CCCN(CC1CC1)C(=O)CSc1nc(C)nc2scc(-c3cccs3)c12 [9B] | No |  | No |
| Cc1ccc(-c2csc3ncnc(Sc4nnnn4C)c23)cc1 [57A] | Yes | Lower IC50 ratio | No |
| Cc1nc(SCC(=O)N(Cc2ccccc2)Cc2ccccc2)c2c(-c3cccs3)csc2n1 [22B] | No |  | No |
| COc1ccccc1-n1ncc2c(C)nnc(SCC(=O)N3CCOCC3)c21 [77C] | No |  | No |
| c1ccc2c(c1)sc1nnc(Sc3ncnc4sc5c(c34)CCCC5)n12 [62A] | No |  | No |
| CCCN(CC(=O)N(C)C)c1nc(C)nc2scc(-c3cccs3)c12 [46B] | Yes | Lower IC50 ratio | No |
| CCc1nc(SCC(=O)OC)c2ccsc2n1 [42C] | No | Lower IC50 ratio | No |
| Cc1nc(N2CCNC(=O)C2)c2c(-c3cccs3)csc2n1 [3B] | No |  | No |
| Cc1nc(SCCO)c2c(-c3cccs3)csc2n1 [47A] | Yes | Lower IC50 ratio | Yes |
| Cc1nc(SCCN2CCCS2(=O)=O)c2c(C)c(C)sc2n1 [83C] | No |  | No |
| COC(=O)CSc1nnc(C(C)C)c2cnn(-c3ccc(C)cc3)c12 [76C] | Yes | Lower IC50 ratio | No |
| Cc1nc(Sc2nnc(-c3cccnc3)n2C2CC2)c2c(-c3cccs3)csc2n1 [24A] | Yes | Lower IC50 ratio | No |
| Cc1nc(Sc2nnc(-c3cccnc3)n2C)c2c(-c3cccs3)csc2n1 [23A] | Yes | Lower IC50 ratio | Yes |
| Cc1nc(SC(C(=O)NC(N)=O)C(C)C)c2c(-c3cccs3)csc2n1 (stereo not drawn) [34B] | No |  | No |
| CCN(CC)CCSc1nc(C)nc2sc3c(c12)CCC3 [33C] | Yes | Lower IC50 ratio | No |

| SMILES | Selected from primary screen for growth inhibition of A549 cells at 50 μM [1] | Selected for having an IC50 ratio (10 mM glucose: 1 mM glucose) of A549 growth higher than WBC-A [1] | Rescue of the tps1Δ strain on 2.5 mM glucose at 100 μM (tps1Δ cells) |
| --- | --- | --- | --- |
| Cc1nc(SCC(N)=O)c2c(C)c(C)sc2n1 [61C] | No |  | No |
| Cc1ccc(-c2csc3nc(CSc4nnc5n4CCCCC5)[nH]c(=O)c23)s1 [4A] | No |  | No |
| OCCSc1ncnc2sc(-c3ccccc3)cc12 [30C] | No |  | No |
| Cc1nc(SCC(=O)NC(=O)NCc2ccco2)c2c(-c3cccs3)csc2n1 [28B] | No |  | No |
| Cc1sc2ncnc(Sc3nnc4n3CCCCC4)c2c1C [64A] | No |  | No |
| Cc1nc(SCC(=O)C(C)(C)C)c2c(-c3cccs3)csc2n1 [18A] | Yes | Lower IC50 ratio | No |
| COCCSc1nnc(C)c2cnn(-c3ccccc3)c12 [69C] | No |  | No |
| c1nc(Sc2nnc3n2CCCCC3)c2c3c(sc2n1)CCCC3 [65A] | No |  | No |
| Cc1nc(SCC(=O)c2ccc3c(c2)NC(=O)CO3)c2c(-c3cccs3)csc2n1 [11C] | Yes | Higher IC50 ratio and confirmed | Yes |
| Cc1nc(SCC(=O)N(C)Cc2ccco2)c2c(-c3cccs3)csc2n1 [27B] | No |  | No |
| CCc1nc(SCC(=O)OC)c2c3c(sc2n1)COC(C)(C)C3 [79C] | No |  | No |
| CCN(CC)CCSc1ncnc2scc(-c3ccccc3)c12 [36C] | Yes | Lower IC50 ratio | No |
| Cn1ccnc1Sc1nc(CN2CCOCC2)nc2scc(-c3cccs3)c12 [3C] | No |  | No |
| Cc1nc(N(C)CC(N)=O)c2c(-c3cccs3)csc2n1 [39B] | No |  | No |
| Cc1nc(SCC(N)=O)c2c(-c3cccs3)csc2n1 [14A] | No |  | Yes |
| CCn1nnnc1Sc1nc(CN2CCOCC2)nc2scc(-c3cccs3)c12 [8C] | Yes | Lower IC50 ratio | No |
| Cc1nc(SCC(=O)N(C)CCC#N)c2c(-c3cccs3)csc2n1 [7B] | No |  | Yes |
| COC(=O)CN(C)c1nc(C)nc2scc(-c3ccc(OC)c(OC)c3)c12 [67C] | Yes | Lower IC50 ratio | No |
| CCn1c(CN)nnc1Sc1nc(-c2ccccc2)nc2scc(-c3ccccc3)c12 [37A] | No |  | No |
| CC(=O)N(c1nnc(Sc2nc(C)nc3scc(-c4cccs4)c23)s1)C1CC1 [39C] | No |  | No |
| Cc1ccc(-c2csc3ncnc(SCC(=O)N(C)Cc4ccc(C)o4)c23)cc1 [2B] | Yes | Lower IC50 ratio | No |

Source: patent publication US20240252508A1, “Novel glucose uptake inhibitors for use in the treatment of cancer” (NOVELYEAST BV, priority 2021, published 2024)
